Experimental data published in patent publication US10668049B2, “Methods of treating cognitive decline with transforming growth factor beta inhibitors” (The Regents of the University of California, priority 2008, dated 2020).

Experiments:
[1] = test system: Smad2; assay: Smad2-P Western blot of cortical lysates after in vivo albumin treatment; parameters: species or system rat; conditions: animals exposed for 48 hours, compared to sham-operated controls
Method: All experimental procedures were approved by the ethical committees dealing with experiments on animals at Charité University Medicine, Berlin and Ben-Gurion University of the Negev, Beer-Sheva. The in vivo experiments were performed as previously described (ivens et al., 2007; Seiffert et al., 2004). Adult male Wistar rats were treated with artificial cerebrospinal fluid (aCSF, composition in mM: 129 NaCl, 21 NaHCO3, 1.25 NaH2PO4, 1.8 MgSO4, 1.6 CaCl2, 3 KCl, 10 glucose) supplemented with deoxycholic acid (DOC, 2 mM, Sigma-Aldrich, Steinheim, Germany), bovine serum albumin (BSA, 0.1 mM. Merck, Darmstadt, Germany) corresponding to 25% of serum albumin concentration, or with TGF-β1 (10 ng/ml, Peprotech, Rocky Hill, N.J.). Sham-operated animals (perfused with aCSF) served as controls. […] Animals were sacrificed 7/8, 24, or 48 hours following treatment. […]
To determine whether albumin binds to TGF-β receptors, co-immunoprecipitation using antibodies against albumin or TGF-βRII was performed on cortical lysate samples treated with albumin. An expected hand corresponding to TGF-βRII was detected in samples immunoprecipitated with the TGF-βRII antibody. More importantly, this band was also detected in samples pre-incubated with albumin when immunoprecipitated with the albumin antibody and probed for TGF-βRII (FIG. 2a). […]

[2] = test system: brain slices; assay: Field potentials during train stimulation in brain slices exposed to albumin in sACSF; format: cell-based, rat; conditions: for field potential duration (at ⅓ maximal amplitude), 1st stimulus / field potential duration (at ⅓ maximal amplitude), 5th stimulus: treated
Method: For electrophysiological experiments, rats were deeply anesthetized with isoflurane and then decapitated. Brains were quickly removed, and transverse hippocampal-cortical slices ([…] thick) were prepared using a vibratome (Campden Instruments, Loughborough, UK). Slices were maintained in a humidified, carbogenated (5% CO2 and 95% O2) gas atmosphere at 36±1° C. and perfused with ACSF in a standard interface chamber (Seiffert et al., 2004; Ivens et al., 2007). To mimic the altered ionic environment during BBB disruption, recordings were acquired in a serum-adapted electrolyte solution (sACSF; see Seiffert et al. 2004). sACSF was similar in composition to the ACSF except for different concentrations of MgSO4 (0.8 mM), CaCl2 (1.3 mM), KCl (5.7 mM) and glutamine (1 mM). “Treated” slices were incubated with sACSF containing 0.1 mM bovine serum albumin for 2 h before transfer to the perfusion chamber.
Electrophysiological recordings were obtained 6-10 h following perfusion with sACSF. Control slices were treated similarly, using sACSF without albumin. For extracellular recordings, glass microelectrodes (˜3 MΩ, 154 mM NaCl) were positioned in layer 4 of the neocortex. Slices were stimulated with brief (100 μs) pulses, by using bipolar stimulation electrodes placed at the border between white and gray matter in the same conical column. Trains of 50 stimuli were applied at 2, 5, 10, 20, 50 and 100 Hz, at 2.5× threshold stimulation intensity. […] Extracellular potassium concentrations ([K+]o) were measured with ion-sensitive microelectrodes (ISMEs; Lux and Neher, 1973: Jauch et al., 2002).
The simulation data presented above predicted maximal EPSP facilitation at 20 Hz when [K^+]o clearance is reduced and decreased facilitation (at 50-100 Hz) when the only change induced is glutamate accumulation in the synaptic cleft. Field potentials in response to stimulation at various frequencies in brain slices during “epileptogenesis” (exposure to albumin in sACSF) compared to controls (sACSF alone) were therefore measured.

[3] = test system: TGF-β signaling pathway; assay: Microarray and real-time RT-PCR gene expression after in vivo albumin with or without TGF-βR blockers; parameters: species or system rat; conditions: albumin alone, 24 hours
Method: All experimental procedures were approved by the ethical committees dealing with experiments on animals at Charité University Medicine, Berlin and Ben-Gurion University of the Negev, Beer-Sheva. The in vivo experiments were performed as previously described (ivens et al., 2007; Seiffert et al., 2004). Adult male Wistar rats were treated with artificial cerebrospinal fluid (aCSF, composition in mM: 129 NaCl, 21 NaHCO3, 1.25 NaH2PO4, 1.8 MgSO4, 1.6 CaCl2, 3 KCl, 10 glucose) supplemented with deoxycholic acid (DOC, 2 mM, Sigma-Aldrich, Steinheim, Germany), bovine serum albumin (BSA, 0.1 mM. Merck, Darmstadt, Germany) corresponding to 25% of serum albumin concentration, or with TGF-β1 (10 ng/ml, Peprotech, Rocky Hill, N.J.). Sham-operated animals (perfused with aCSF) served as controls. […]
Total RNA was isolated using the TRIzol reagent (Invitrogen. Carlsbad, Calif.) and prepared using the Affymetrix GeneChip one-cycle target labeling kit (Affymetrix, Santa Clara, Calif.). […] Pairwise Pearson correlation coefficients for the three treatments were determined with Excel (Microsoft Corp., Richmond, Wash.). […]
mRNA expression levels were determined by quantitative reverse transcriptase-PCR by real-time kinetic analysis with an iQ5 detection system (Bio-Rad, Hercules, Calif.). Real-time PCR data were analyzed using the PCR Miner program (Zhao and Fernald, 2005). […]

[4] = 100 Hz stimulation, treated (n=4)

## albumin: bovine serum albumin, used to induce epileptogenesis
[1]
  Smad2 phosphorylation levels in cortical lysates: increase in Smad2 phosphorylation
[2]; 5 Hz stimulation
  stimulation-induced long-lasting epileptiform discharges, slices showing them: 2 of 4
[2]; 10-Hz stimulation
  stimulation-induced long-lasting epileptiform discharges, slices showing them: 4 of 4
[2]; 10 Hz
  field potential duration (at ⅓ maximal amplitude), 1st stimulus: 6.5 ± 0.7 ms
  field potential duration (at ⅓ maximal amplitude), 5th stimulus: 13.1 ± 2.6 ms
[2]; 20 Hz stimulation
  stimulation-induced long-lasting epileptiform discharges, slices showing them: 3 of 4
[2]; 20 Hz
  field potential duration (at ⅓ maximal amplitude), 1st stimulus: 6.6 ± 0.8 ms
  field potential duration (at ⅓ maximal amplitude), 5th stimulus: 12.9 ± 2.9 ms
[2]; [4]
  field potential amplitude, 1st stimulus: 1.44±0.36 mV
  field potential amplitude, 5th stimulus: 0.47±0.09 mV
[3]
  NF-kappaB cascade, Jak-Stat cascade, and MAPKKK cascade expression: upregulated
